# Source: ChEMBL document CHEMBL1155237, “Selective inhibitors of the mutant B-Raf pathway: discovery of a potent and orally bioavailable aminoisoquinoline” (J Med Chem, 2009)
# Legend:
# [1] = Clearance in CD1 mouse; format: ADME, organism-based; conditions: in vivo
# [2] = target: Mitogen-activated protein kinase kinase kinase 9 (Homo sapiens) (UniProt P80192); test: Inhibition of MLK1 assessed as enzyme activity at 1 uM relative to untreated control; set-up: scale not given: the % may be the effect or the level left
# [3] = test system: Mast/stem cell growth factor receptor Kit (Homo sapiens), P10721 [D816V]; test: Inhibition of KIT D816V mutant assessed as enzyme activity at 1 uM relative to untreated control; set-up: scale not given: the % may be the effect or the level left
# [4] = target: Serine/threonine-protein kinase STK11 (Homo sapiens) (UniProt Q15831); test: Inhibition of LKB1 assessed as enzyme activity at 1 uM relative to untreated control; set-up: scale not given: the % may be the effect or the level left
# [5] = target: Leukocyte tyrosine kinase receptor (Homo sapiens) (UniProt P29376); test: Inhibition of LTK assessed as enzyme activity at 1 uM relative to untreated control; set-up: scale not given: the % may be the effect or the level left
# [6] = target: Bone morphogenetic protein receptor type-1A (Homo sapiens) (UniProt P36894); test: Inhibition of BMPR1A assessed as enzyme activity at 1 uM relative to untreated control; set-up: scale not given: the % may be the effect or the level left
# [7] = target: Calcium/calmodulin-dependent protein kinase kinase 1 (Homo sapiens) (UniProt Q8N5S9); test: Inhibition of CAMKK1 assessed as enzyme activity at 1 uM relative to untreated control; set-up: scale not given: the % may be the effect or the level left
# [8] = target: Cyclin-dependent kinase 5 (Homo sapiens) (UniProt Q00535); test: Inhibition of CDK5 assessed as enzyme activity at 1 uM relative to untreated control; set-up: scale not given: the % may be the effect or the level left
# [9] = target: Cyclin-dependent kinase 8 (Homo sapiens) (UniProt P49336); test: Inhibition of CDK8 assessed as enzyme activity at 1 uM relative to untreated control; set-up: scale not given: the % may be the effect or the level left
# [10] = target: Cyclin-dependent kinase 9 (Homo sapiens) (UniProt P50750); test: Inhibition of CDK9 assessed as enzyme activity at 1 uM relative to untreated control; set-up: scale not given: the % may be the effect or the level left
# [11] = target: Cyclin-dependent kinase-like 2 (Homo sapiens) (UniProt Q92772); test: Inhibition of CDKL2 assessed as enzyme activity at 1 uM relative to untreated control; set-up: scale not given: the % may be the effect or the level left
# [12] = test system: Proto-oncogene tyrosine-protein kinase receptor Ret (Homo sapiens), P07949 [V804L]; test: Inhibition of RET V804L mutant assessed as enzyme activity at 1 uM relative to untreated control; set-up: scale not given: the % may be the effect or the level left
# Sequence of Proto-oncogene tyrosine-protein kinase receptor Ret (Homo sapiens), P07949 [V804L] (P07949 whole entry V804L, the tested form may be a part): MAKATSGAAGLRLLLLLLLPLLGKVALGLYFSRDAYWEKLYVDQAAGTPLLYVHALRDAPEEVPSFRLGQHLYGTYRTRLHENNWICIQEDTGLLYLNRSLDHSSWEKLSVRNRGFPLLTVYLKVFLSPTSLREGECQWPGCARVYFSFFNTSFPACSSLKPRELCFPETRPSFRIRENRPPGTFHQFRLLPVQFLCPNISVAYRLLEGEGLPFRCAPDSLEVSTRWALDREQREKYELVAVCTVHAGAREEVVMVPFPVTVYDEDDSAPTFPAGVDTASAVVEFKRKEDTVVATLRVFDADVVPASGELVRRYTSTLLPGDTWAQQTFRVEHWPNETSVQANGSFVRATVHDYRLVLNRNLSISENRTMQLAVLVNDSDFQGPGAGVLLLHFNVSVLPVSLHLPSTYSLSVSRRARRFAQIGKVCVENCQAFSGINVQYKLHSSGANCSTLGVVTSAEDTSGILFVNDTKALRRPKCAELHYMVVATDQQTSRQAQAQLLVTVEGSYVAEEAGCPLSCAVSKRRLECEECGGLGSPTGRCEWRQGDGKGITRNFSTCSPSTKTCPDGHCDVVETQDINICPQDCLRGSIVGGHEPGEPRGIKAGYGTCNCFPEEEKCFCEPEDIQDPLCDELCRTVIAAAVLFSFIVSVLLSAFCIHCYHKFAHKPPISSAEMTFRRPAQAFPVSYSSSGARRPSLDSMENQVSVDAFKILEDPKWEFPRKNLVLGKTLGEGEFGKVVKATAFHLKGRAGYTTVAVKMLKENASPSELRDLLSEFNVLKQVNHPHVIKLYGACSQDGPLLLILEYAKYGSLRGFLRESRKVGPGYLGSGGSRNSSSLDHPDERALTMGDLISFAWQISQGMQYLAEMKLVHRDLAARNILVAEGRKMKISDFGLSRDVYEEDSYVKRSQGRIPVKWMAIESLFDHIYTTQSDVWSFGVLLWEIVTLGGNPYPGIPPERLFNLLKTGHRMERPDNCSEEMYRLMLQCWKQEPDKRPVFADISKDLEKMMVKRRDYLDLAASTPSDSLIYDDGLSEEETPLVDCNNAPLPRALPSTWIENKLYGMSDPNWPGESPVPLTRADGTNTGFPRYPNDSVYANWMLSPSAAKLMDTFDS
# [13] = target: Ribosomal protein S6 kinase alpha-2 (Homo sapiens) (UniProt Q15349); test: Inhibition of RPS6KA2 kinase domain 2 assessed as enzyme activity at 1 uM relative to untreated control; set-up: scale not given: the % may be the effect or the level left
# [14] = target: Ribosomal protein S6 kinase alpha-5 (Homo sapiens) (UniProt O75582); test: Inhibition of RPS6KA5 kinase domain 1 assessed as enzyme activity at 1 uM relative to untreated control; set-up: scale not given: the % may be the effect or the level left
# Sequence of Ribosomal protein S6 kinase alpha-5 (Homo sapiens) (O75582 whole entry, looked up, the tested form may be a part): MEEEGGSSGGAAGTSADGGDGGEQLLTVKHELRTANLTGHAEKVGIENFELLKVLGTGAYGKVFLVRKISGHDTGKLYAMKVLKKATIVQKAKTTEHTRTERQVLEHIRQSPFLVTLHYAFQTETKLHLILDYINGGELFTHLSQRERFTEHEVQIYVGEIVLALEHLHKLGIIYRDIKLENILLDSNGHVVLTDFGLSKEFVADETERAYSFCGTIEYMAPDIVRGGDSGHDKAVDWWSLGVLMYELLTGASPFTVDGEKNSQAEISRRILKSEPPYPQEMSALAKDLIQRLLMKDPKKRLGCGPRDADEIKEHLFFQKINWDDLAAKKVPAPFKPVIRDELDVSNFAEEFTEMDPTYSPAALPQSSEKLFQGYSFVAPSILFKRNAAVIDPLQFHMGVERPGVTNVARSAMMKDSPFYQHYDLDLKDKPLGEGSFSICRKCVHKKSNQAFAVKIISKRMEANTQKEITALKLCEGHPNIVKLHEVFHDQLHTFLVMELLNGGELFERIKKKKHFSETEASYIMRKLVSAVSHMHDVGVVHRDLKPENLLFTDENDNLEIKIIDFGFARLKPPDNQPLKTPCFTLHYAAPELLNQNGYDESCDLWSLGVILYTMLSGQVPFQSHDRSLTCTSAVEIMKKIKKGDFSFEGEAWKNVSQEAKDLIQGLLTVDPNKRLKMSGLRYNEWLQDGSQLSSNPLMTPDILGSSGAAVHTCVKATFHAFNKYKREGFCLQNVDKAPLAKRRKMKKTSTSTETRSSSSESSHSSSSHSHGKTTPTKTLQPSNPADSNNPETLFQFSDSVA
# [15] = target: Ribosomal protein S6 kinase alpha-5 (Homo sapiens) (UniProt O75582); test: Inhibition of RPS6KA5 kinase domain 2 assessed as enzyme activity at 1 uM relative to untreated control; set-up: scale not given: the % may be the effect or the level left
# [16] = target: Uncharacterized serine/threonine-protein kinase SBK3 (Homo sapiens) (UniProt P0C264); test: Inhibition of SgK110 assessed as enzyme activity at 1 uM relative to untreated control; set-up: scale not given: the % may be the effect or the level left
# [17] = target: SRSF protein kinase 2 (Homo sapiens) (UniProt P78362); test: Inhibition of SRPK2 assessed as enzyme activity at 1 uM relative to untreated control; set-up: scale not given: the % may be the effect or the level left
# [18] = target: Ephrin type-B receptor 1 (Homo sapiens) (UniProt P54762); test: Inhibition of EPHB1 assessed as enzyme activity at 1 uM relative to untreated control; set-up: scale not given: the % may be the effect or the level left
# [19] = target: Mitogen-activated protein kinase 1 (Homo sapiens) (UniProt P28482); test: Inhibition of ERK2 assessed as enzyme activity at 1 uM relative to untreated control; set-up: scale not given: the % may be the effect or the level left
# [20] = target: Fibroblast growth factor receptor 4 (Homo sapiens) (UniProt P22455); test: Inhibition of FGFR4 assessed as enzyme activity at 1 uM relative to untreated control; set-up: scale not given: the % may be the effect or the level left
# [21] = test system: Receptor-type tyrosine-protein kinase FLT3 (Homo sapiens), P36888 [N841I]; test: Inhibition of FLT3 N841I mutant assessed as enzyme activity at 1 uM relative to untreated control; set-up: scale not given: the % may be the effect or the level left
# [22] = target: Tyrosine-protein kinase ITK/TSK (Homo sapiens) (UniProt Q08881); test: Inhibition of ITK assessed as enzyme activity at 1 uM relative to untreated control; set-up: scale not given: the % may be the effect or the level left
# [23] = target: Epidermal growth factor receptor (Homo sapiens) (UniProt P00533); test: Inhibition of EGFR assessed as enzyme activity at 1 uM relative to untreated control; set-up: scale not given: the % may be the effect or the level left
# [24] = test system: Epidermal growth factor receptor (Homo sapiens), P00533 [UNDEFINED MUTATION]; test: Inhibition of EGFR L747-E749del A750P assessed as enzyme activity at 1 uM relative to untreated control; format: protein assay; set-up: scale not given: the % may be the effect or the level left
# [25] = target: Ephrin type-A receptor 6 (Homo sapiens) (UniProt Q9UF33); test: Inhibition of EPHA6 assessed as enzyme activity at 1 uM relative to untreated control; set-up: scale not given: the % may be the effect or the level left
# [26] = target: Serine/threonine-protein kinase PAK 5 (Homo sapiens) (UniProt Q9P286); test: Inhibition of PAK7/PAK5 assessed as enzyme activity at 1 uM relative to untreated control; set-up: scale not given: the % may be the effect or the level left
# [27] = target: Phosphorylase b kinase gamma catalytic chain, liver/testis isoform (Homo sapiens) (UniProt P15735); test: Inhibition of PHKG2 assessed as enzyme activity at 1 uM relative to untreated control; set-up: scale not given: the % may be the effect or the level left
# [28] = target: Phosphatidylinositol 4,5-bisphosphate 3-kinase catalytic subunit delta isoform (Homo sapiens) (UniProt O00329); test: Inhibition of PIK3CD assessed as enzyme activity at 1 uM relative to untreated control; set-up: scale not given: the % may be the effect or the level left
# [29] = target: Serine/threonine-protein kinase N1 (Homo sapiens) (UniProt Q16512); test: Inhibition of PKN1 assessed as enzyme activity at 1 uM relative to untreated control; set-up: scale not given: the % may be the effect or the level left
# [30] = target: Serine/threonine-protein kinase PLK3 (Homo sapiens) (UniProt Q9H4B4); test: Inhibition of PLK3 assessed as enzyme activity at 1 uM relative to untreated control; set-up: scale not given: the % may be the effect or the level left
# Sequence of Serine/threonine-protein kinase PLK3 (Homo sapiens) (Q9H4B4 whole entry, looked up): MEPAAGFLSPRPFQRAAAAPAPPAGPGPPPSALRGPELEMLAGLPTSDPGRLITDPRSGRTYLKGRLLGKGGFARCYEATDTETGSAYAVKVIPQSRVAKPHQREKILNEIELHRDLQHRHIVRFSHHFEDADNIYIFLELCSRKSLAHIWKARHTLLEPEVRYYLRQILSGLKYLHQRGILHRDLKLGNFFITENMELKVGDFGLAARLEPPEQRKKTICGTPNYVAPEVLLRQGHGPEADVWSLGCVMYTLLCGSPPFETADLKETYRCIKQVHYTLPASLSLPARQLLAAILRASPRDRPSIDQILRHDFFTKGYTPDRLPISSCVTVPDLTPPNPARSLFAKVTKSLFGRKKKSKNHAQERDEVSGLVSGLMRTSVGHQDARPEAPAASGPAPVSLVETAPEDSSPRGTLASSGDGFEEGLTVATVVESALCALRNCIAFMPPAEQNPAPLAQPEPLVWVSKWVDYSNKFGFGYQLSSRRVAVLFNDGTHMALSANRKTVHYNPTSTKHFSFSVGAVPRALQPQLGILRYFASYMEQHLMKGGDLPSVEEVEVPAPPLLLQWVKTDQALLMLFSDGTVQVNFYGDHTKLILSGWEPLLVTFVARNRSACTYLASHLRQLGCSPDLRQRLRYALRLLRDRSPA
# [31] = target: Serine/threonine-protein kinase D2 (Homo sapiens) (UniProt Q9BZL6); test: Inhibition of PRKD2 assessed as enzyme activity at 1 uM relative to untreated control; set-up: scale not given: the % may be the effect or the level left
# [32] = target: Mitogen-activated protein kinase kinase kinase 7 (Homo sapiens) (UniProt O43318); test: Inhibition of TAK1 assessed as enzyme activity at 1 uM relative to untreated control; set-up: scale not given: the % may be the effect or the level left
# [33] = target: Serine/threonine-protein kinase tousled-like 1 (Homo sapiens) (UniProt Q9UKI8); test: Inhibition of TLK1 assessed as enzyme activity at 1 uM relative to untreated control; set-up: scale not given: the % may be the effect or the level left
# [34] = target: Serine/threonine-protein kinase TNNI3K (Homo sapiens) (UniProt Q59H18); test: Inhibition of TNNI3K assessed as enzyme activity at 1 uM relative to untreated control; set-up: scale not given: the % may be the effect or the level left
# [35] = target: Dual specificity protein kinase TTK (Homo sapiens) (UniProt P33981); test: Inhibition of TTK assessed as enzyme activity at 1 uM relative to untreated control; set-up: scale not given: the % may be the effect or the level left
# [36] = target: Tyrosine-protein kinase receptor TYRO3 (Homo sapiens) (UniProt Q06418); test: Inhibition of TYRO3 assessed as enzyme activity at 1 uM relative to untreated control; set-up: scale not given: the % may be the effect or the level left
# Sequence of Tyrosine-protein kinase receptor TYRO3 (Homo sapiens) (Q06418 whole entry): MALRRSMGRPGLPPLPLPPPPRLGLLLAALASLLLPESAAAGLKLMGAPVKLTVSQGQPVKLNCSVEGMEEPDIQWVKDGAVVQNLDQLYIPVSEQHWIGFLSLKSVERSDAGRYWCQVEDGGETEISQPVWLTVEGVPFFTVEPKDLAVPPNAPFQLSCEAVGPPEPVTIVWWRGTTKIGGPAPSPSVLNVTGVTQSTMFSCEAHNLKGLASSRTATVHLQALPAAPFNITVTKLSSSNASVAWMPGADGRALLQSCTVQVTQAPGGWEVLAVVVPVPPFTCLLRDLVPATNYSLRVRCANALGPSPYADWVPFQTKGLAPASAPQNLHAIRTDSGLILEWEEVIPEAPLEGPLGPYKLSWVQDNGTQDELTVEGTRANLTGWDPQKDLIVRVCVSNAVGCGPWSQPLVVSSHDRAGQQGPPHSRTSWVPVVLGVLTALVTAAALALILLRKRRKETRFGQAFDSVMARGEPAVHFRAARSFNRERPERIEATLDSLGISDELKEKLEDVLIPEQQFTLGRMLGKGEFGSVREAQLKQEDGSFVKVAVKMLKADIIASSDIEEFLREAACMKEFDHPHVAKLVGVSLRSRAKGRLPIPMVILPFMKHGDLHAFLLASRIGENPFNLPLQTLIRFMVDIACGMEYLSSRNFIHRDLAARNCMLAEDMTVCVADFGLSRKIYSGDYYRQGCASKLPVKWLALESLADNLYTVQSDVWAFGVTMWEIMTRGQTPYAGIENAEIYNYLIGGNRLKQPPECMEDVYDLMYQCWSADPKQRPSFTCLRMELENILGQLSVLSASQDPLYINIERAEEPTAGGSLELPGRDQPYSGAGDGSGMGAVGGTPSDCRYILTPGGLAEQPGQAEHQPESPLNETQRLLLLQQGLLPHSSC
# [37] = target: Serine/threonine-protein kinase ULK2 (Homo sapiens) (UniProt Q8IYT8); test: Inhibition of ULK2 assessed as enzyme activity at 1 uM relative to untreated control; set-up: scale not given: the % may be the effect or the level left
# Sequence of Serine/threonine-protein kinase ULK2 (Homo sapiens) (Q8IYT8 whole entry): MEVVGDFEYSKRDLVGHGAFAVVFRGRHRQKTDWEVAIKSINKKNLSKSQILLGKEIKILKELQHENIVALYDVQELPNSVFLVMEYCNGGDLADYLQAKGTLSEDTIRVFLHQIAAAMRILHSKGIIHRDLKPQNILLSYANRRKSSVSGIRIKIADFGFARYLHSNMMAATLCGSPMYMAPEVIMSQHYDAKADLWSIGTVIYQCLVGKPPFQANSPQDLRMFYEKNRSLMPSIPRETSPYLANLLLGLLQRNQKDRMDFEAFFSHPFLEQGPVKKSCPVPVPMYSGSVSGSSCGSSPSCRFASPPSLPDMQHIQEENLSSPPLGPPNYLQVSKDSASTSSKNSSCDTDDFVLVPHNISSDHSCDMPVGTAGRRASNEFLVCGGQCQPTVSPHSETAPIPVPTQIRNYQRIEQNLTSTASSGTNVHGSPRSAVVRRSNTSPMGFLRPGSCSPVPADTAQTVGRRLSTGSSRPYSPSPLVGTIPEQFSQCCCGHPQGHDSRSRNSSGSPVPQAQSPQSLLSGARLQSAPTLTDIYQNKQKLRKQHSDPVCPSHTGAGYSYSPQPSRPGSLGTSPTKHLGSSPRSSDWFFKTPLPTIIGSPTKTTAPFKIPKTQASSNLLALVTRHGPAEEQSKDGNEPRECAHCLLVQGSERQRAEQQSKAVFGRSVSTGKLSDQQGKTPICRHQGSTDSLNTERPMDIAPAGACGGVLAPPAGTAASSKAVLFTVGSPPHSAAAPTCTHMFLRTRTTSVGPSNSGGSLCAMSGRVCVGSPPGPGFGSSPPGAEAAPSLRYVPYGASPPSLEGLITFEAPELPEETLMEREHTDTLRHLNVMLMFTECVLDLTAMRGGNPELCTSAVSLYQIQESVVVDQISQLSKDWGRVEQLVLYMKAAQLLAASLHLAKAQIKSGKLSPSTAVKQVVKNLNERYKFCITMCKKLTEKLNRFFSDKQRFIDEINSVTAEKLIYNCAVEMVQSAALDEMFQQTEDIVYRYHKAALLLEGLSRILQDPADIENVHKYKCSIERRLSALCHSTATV
# [38] = target: Serine/threonine-protein kinase 25 (Homo sapiens) (UniProt O00506); test: Inhibition of YSK1 assessed as enzyme activity at 1 uM relative to untreated control; set-up: scale not given: the % may be the effect or the level left
# Sequence of Serine/threonine-protein kinase 25 (Homo sapiens) (O00506 whole entry, looked up): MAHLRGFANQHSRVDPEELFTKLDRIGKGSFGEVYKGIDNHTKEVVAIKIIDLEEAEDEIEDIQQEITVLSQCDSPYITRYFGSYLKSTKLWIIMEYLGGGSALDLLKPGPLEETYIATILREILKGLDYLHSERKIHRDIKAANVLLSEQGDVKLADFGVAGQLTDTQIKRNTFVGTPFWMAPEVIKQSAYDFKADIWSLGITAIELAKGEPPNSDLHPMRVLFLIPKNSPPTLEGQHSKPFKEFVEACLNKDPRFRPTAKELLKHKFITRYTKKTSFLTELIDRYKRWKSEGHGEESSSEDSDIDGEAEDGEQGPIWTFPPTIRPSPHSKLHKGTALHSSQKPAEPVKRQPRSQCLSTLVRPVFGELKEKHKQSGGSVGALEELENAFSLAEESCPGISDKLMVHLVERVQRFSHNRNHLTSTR
smiles,measurement,setting,value
Cc1ccc2c(Nc3ccc(Cl)cc3)nccc2c1Nc1ncccc1-c1ncnc2[nH]cnc12.Cl.Cl.Cl,clearance,[1],3.17 mL/min
same,Activity,[2],100%
same,Activity,[3],100%
same,Activity,[4],100%
same,Activity,[5],20%
same,Activity,[6],100%
same,Activity,[7],96%
same,Activity,[8],100%
same,Activity,[9],100%
same,Activity,[10],97%
same,Activity,[11],100%
same,Activity,[12],100%
same,Activity,[13],81%
same,Activity,[14],90%
same,Activity,[15],100%
same,Activity,[16],78%
same,Activity,[17],100%
same,Activity,[18],2%
same,Activity,[19],100%
same,Activity,[20],100%
same,Activity,[21],100%
same,Activity,[22],100%
same,Activity,[23],100%
same,Activity,[24],89%
same,Activity,[25],2.8%
same,Activity,[26],90%
same,Activity,[27],100%
same,Activity,[28],100%
same,Activity,[29],100%
same,Activity,[30],98%
same,Activity,[31],100%
same,Activity,[32],84%
same,Activity,[33],83%
same,Activity,[34],21%
same,Activity,[35],100%
same,Activity,[36],84%
same,Activity,[37],100%
same,Activity,[38],100%
